Like-named read-outs stand apart in the source and are kept apart here.
Columns and labels:
[1] = tested on: fetal globin mRNA (human erythroleukemia cells); assay: Fetal globin mRNA in erythroleukemia cells (primer extension); format: cell-based
Protocol: Compounds were tested for increased expression of the human globin genes in human erythroid cells. In addition, as the cell line being tested is a tumor cell line, the assay determines if differentiation, a growth inhibitory effect on cancer cells, is induced by the compounds tested. Human erythroleukemia cells were cultured in RPMI media with 10% fetal calf serum alone or with treatment with various compounds for 4 days. Globin MRNA was quantitated by primer extension analysis. Fetal globin mRNA was compared to the amount of fetal globin mRNA produced in untreated cells during the same culture period. The quantitation was expressed as a percent of alpha globin MRNA which was constant. Results are expressed proportional to α-globin mRNA (Table 3).

anemic baboon = assay: In vivo reticulocyte proliferation, globin expression and blood counts in anemic (phlebotomized) baboons
Protocol: Experiments were performed to determine if administration of the chemical compositions could induce fetal globin gene expression in an in vivo model similar to humans (S. P. Perrine et al., Brit. J. Haematol. 88:555-61, 1994). Briefly, chemicals were prepared as sterile pharmaceutical solutions in pH adjusted sterile water. A variety of chemical compositions were administered sequentially to some baboons. After administration of one compound, a wash-out period with no compound administration was maintained until reticulocytes returned to base line prior to administration of the next compound. This was done, at least partly, to compare the magnitude of response which occurred within the same individual animal to different compounds.
Briefly, juvenile female baboons (2 years old) were catheterized with arterial and venous catheters and phlebotomized gradually every day to maintain a moderate anemia of 7.0 to 7.5 grams hemoglobin/dl. Fetal reticulocytes, the newly produced red blood cells containing fetal globin, were assayed using a monoclonal antibody against fetal globin (HbF) as described by G. Dover et al. (Blood 67:735-38, 1986). Briefly, blood was stained with two antibodies, one specific for reticulocytes and another against fetal globin protein. The amount of antibody bound cells was determined by FACS analysis. Globin chain synthesis was assayed as described by J. B. Clegg et al. (J. Mol. Biol. 19:91-108, 1966). Briefly, reticulocytes were radio-labeled with ^3 H-leucine which was incorporated in equal proportions into actively synthesized globin chains. After incubation in leucine-free media, cells were washed, and globin proteins were separated and purified by column chromatography. Radioactivity incorporated into each peak is compared and the ratios of gamma to gamma plus beta globin calculated. Each animal served as its own control with baseline monitoring assays performed for 4-6 weeks before any drug was administered. Phlebotomy was continued daily, so that peripheral HbF levels in the animals were not considered to be accurate over the short treatment time-frames and were not monitored. Safety monitoring was performed by frequent physical examinations, quantitation of food eaten, activity and frequent chemistry and hematology monitoring. Complete blood counts were assayed before, during and after treatment. Results presented were not adjusted to account for the daily phlebotomy.

[2] = tested on: fetal globin (cultured erythroid progenitor cells); details: cited from earlier work
[3] = tested on: fetal globin (gamma globin); assay: Fetal globin expression in erythroid progenitor cells from cord blood; format: cell-based, human; details: for Gamma/(Gamma + Beta): Exp. B, 12-13 days, untreated 25.4%, 27.5%
Protocol: Compositions were tested for activity in inducing fetal globin expression and protein production in erythroid progenitor cells cultured from human cord blood and analyzed as described by S. P. Perrine et al. (Blood 74: 454-60, 1989). Briefly, mononuclear cells were cultured in IMDM with 30% fetal calf serum and 2 units erythropoietin per ml to induce erythroid differentiation. Colonies were harvested on day 12-13, incubated with radio-labelled (^3 H) leucine, and further incubated in leucine-free media, still in the presence of compounds, overnight. Globin composition in the erythroid cells was analyzed by laser densitometry of electrophoretically separated globin chains stained with Coomassie blue, and by autoradiography. Treated cells were incubated for 12-13 days (Table 2, Experiments A and B) or overnight (Table 2, Experiment C) in the presence of the indicated compounds and compared to untreated control cells cultured from the same human subject.

fetal globin production = details: cited from earlier work
[4] = tested on: proximal promoter of the gamma globin gene (K562 cells); assay: Gamma globin promoter-neomycin transfection (61 bp proximal promoter), G418-resistant colonies; format: cell-based, human; details: 1 mM, 8 weeks in G418
Protocol: Gamma globin promoter-neomycin transfection experiments were performed to determine if compounds act by inducing an increase in activity from the proximal promoter of the gamma globin gene. Constructs containing 61 bp of the proximal gamma globin promoter were linked to the reporter gene for neomycin phosphotransferase (NEO) and transfected into permissive K562 cells by electroporation. After 18 hours, transfected cells were passed at 10^3 cells per well into RPMI media containing G418 (neomycin), which kills all mammalian cells unless the gene for NEO is expressed. Phenoxyacetic acid and thiophenoxyacetic acid were added to some of the cells plated into the RPMI/G418 media at concentrations of 1 mM. Cultures were incubated for 8 weeks with media changes performed as needed. Colonies which survived and grew in the presence of G418 were scored and the number of such colonies was compared to those generated when the cells were plated into G418 media without the test compounds. […] There was a greater than 6-fold (>600%) increase in proportions of colonies surviving the presence of phenoxyacetic acid (6/24 wells) and a three-fold (300%) increase in survival in the presence of thiophenoxyacetic acid (3/24 wells).

[5] = tested on: system A transport (K562 cells and nucleated erythroblasts from fetal liver); assay: Effects on system A amino acid transport (3H-MAIB uptake); format: cell-based, human
Protocol: Inhibition of nutrient uptake is undesirable for treatment of anemias. Methyl aminoisobutyric acid (MAIB) labeled with tritium (^3 H) is normally taken up by system A amino acid transport. Cold (unlabeled) compounds were added to cultures containing ^3 H-MAIB and incubated for 1 hour. Cells were harvested and the amount of ^3 H taken up by cells was quantitated by scintillation counting.

Structure (SMILES): CCCC(=O)OCC(O)CO (stereo not shown) [MB, monobutyrin]
- induction of fetal globin mRNA [1]: significantly increased the induction of fetal globin MRNA
- Gamma Globin mRNA (increase) ([1]; 1.0 mM, 4 days): 26%
- Gamma/Alpha ([1]; 1.0 mM, 4 days, untreated 0.46): 0.73
- increase in fetal reticulocytes above basal levels (anemic baboon; 500 to 2,000 mg/kg i.v. daily, 4 days): 220%
- Fetal reticulocytes (anemic baboon; 500 to 2,000 mg/kg i.v. daily, 4 days, from 12%): 27%

Structure (SMILES): CC(=O)Oc1ccccc1 [Phenyl acetate]
- fetal globin expressing reticulocyte proliferation [2]: decrease fetal globin expressing reticulocyte proliferation
- relative proportions of fetal globin per cell [2]: increase relative proportions of fetal globin per cell

Structure (SMILES): CC(CO)C(N)=O (stereo not shown) [MHPP, 2 methyl-3-hydroxypropionamide]
- Gamma/(Gamma + Beta) ([3]; 0.05 mM): 29.8%
- Gamma/(Gamma + Beta) ([3]; 1.0 mM): 24.0%
- expression of fetal globin ([3]; concentrations above 0.25 mM (FIG. 4)): decreased the expression of fetal globin
- fetal globin expression ([3]; concentrations below 0.25 mM): increased fetal globin expression

Structure (SMILES): O=C(O)CCCc1ccccc1 [4-phenyl butyrate]
- fetal globin expressing reticulocyte proliferation [2]: decrease fetal globin expressing reticulocyte proliferation
- relative proportions of fetal globin per cell [2]: increase relative proportions of fetal globin per cell

Structure (SMILES): CCCC(=O)[O-].[Na+] [sodium butyrate]
- stimulation of fetal globin production (fetal globin production): effective in stimulating fetal globin production

Structure (SMILES): O=C(O)CSc1ccccc1 [thiophenoxyacetic acid]
- increase in proportions of colonies surviving [4]: three-fold
- colonies surviving ([4]; none of 24 wells without compound): 3/24
- activation at 1000 µM ([4]; Homo sapiens, K562, 1344 h, read-out: increase in proportions of colonies surviving): 300%

Structure (SMILES): CC(=Cc1ccccc1)C(=O)O [α-methyl cinnamic acid]
- system A (neutral) amino acid transport [5]: do not significantly alter system A transport of amino acids

Structure (SMILES): CC(Cc1ccccc1)C(=O)O (stereo not drawn) [α-methyl hydrocinnamic acid]
- system A (neutral) amino acid transport ([5]; 1 hour, 3H-MAIB (FIG. 12)): caused no significant inhibition and actually increased uptake of nutrients into cells
- production of blood cell types (anemic baboon; baboons): stimulated production of many different cell types
- red blood cell count (anemic baboon; first baboon, infusion 500-1,000 mg/kg, 5 days, from 2.28): 3.53 10^6 red blood cells per microliter
- white blood cell count (anemic baboon; first baboon, infusion 500-1,000 mg/kg, 5 days, from 4.1): 11.5
- total number of reticulocytes (anemic baboon; first baboon, infusion 500-1,000 mg/kg, 5 days, from 5.6%): 11%
- total hemoglobin after treatment (anemic baboon; first baboon, infusion 500-1,000 mg/kg, 5 days, from 6.4): 7.9 grams/dl
- packed red blood cell volume (anemic baboon; first baboon, infusion 500-1,000 mg/kg, 5 days, from 19.5%): 31.2 % of total blood volume
- platelet count (anemic baboon; first baboon, infusion 500-1,000 mg/kg, 5 days, from 26.7): 46.8 10^4 cells/μl
- rise in total hemoglobin (anemic baboon; first baboon, infusion 500-1,000 mg/kg, 5 days, over 3 days): 1.5 grams/dl
- rise in total hemoglobin (anemic baboon; second baboon, 500-700 mg/kg, 5 days): 1.4 grams
- Red blood cell counts (anemic baboon; second baboon, 500-700 mg/kg, 5 days, from 2.3×10^6): 2.82×10^6
- Total hemoglobin (anemic baboon; second baboon, 500-700 mg/kg, 5 days, from 4.6): 6.0 g/dL
- packed red blood cell volume (anemic baboon; second baboon, 500-700 mg/kg, 5 days, from 14.5%): 20.2%
- White blood cell counts (maximum) (anemic baboon; second baboon, 500-700 mg/kg, 5 days, from 8,700): 14,300
- platelet counts (high) (anemic baboon; second baboon, 500-700 mg/kg, 5 days, from 328,000): 486,000
- Total fetal globin synthesis (anemic baboon; second baboon, 500-700 mg/kg, after 5 days, from 4.0%): 10.8%
- adverse effects (anemic baboon; third baboon, same dose, 5 days): No adverse affects were observed
- Fetal globin protein synthesis (anemic baboon; third baboon, same dose, 5 days, from 0%): 6.2 % of non-alpha globin
- fetal hemoglobin producing reticulocytes (anemic baboon; third baboon, same dose, after 5 days (FIG. 8), from 0%): 10%

Structure (SMILES): CCCC(=O)OCC(COC(=O)CCC)OC(=O)CCC [tributyrin]
- Gamma globin expression (anemic baboon; 500 to 750 mg/kg per day i.v., 3 days, from 0%): about 2.2 % of total non-alpha globin expression
- Fetal reticulocytes (anemic baboon; 500 to 750 mg/kg per day i.v., 3 days, from 10%): 14%

Structure (SMILES): CCC(N)C(=O)O (stereo not drawn) [α-amino-n-butyric acid]
- stimulation of fetal globin production (fetal globin production): effective in stimulating fetal globin production
